Test results from ChEMBL document CHEMBL1156849, “Synthesis, immunosuppressive activity and structure-activity relationship study of a new series of 4-N-piperazinyl-thieno[2,3-d]pyrimidine analogues” (Bioorg Med Chem Lett, 2010).

The molecules below were run on Lymphocyte (assay: Immunosuppressive activity in lymphocytes by mixed lymphocyte reaction assay).
Assay type: functional, cell-based

| SMILES | IC50 |
| --- | --- |
| Nc1nc(N2CCN(C(=O)COc3ccc(Br)cc3)CC2)c2ccsc2n1 | 0.32 µM |
| Cc1cccc(NC(=O)N2CCN(c3nc(N)nc4sccc34)CC2)c1 | 0.93 µM |
| CN(C(=O)CN1CCN(c2nc(N)nc3sccc23)CC1)c1ccccc1 | 8.12 µM |
| Nc1nc(N2CCN(C(=O)C3CCCCC3)CC2)c2cc(-c3ccc(F)cc3)sc2n1 | > 10 µM |
| Nc1nc(N2CCN(C(=O)COc3ccc(Cl)cc3)CC2)c2ccsc2n1 | 0.33 µM |
| Nc1nc(N2CCN(C(=O)COc3ccccc3)CC2)c2ccsc2n1 | 0.78 µM |
| Cc1cccc(OCC(=O)N2CCN(c3nc(N)nc4sccc34)CC2)c1 | 0.21 µM |
| COc1ccc(OCC(=O)N2CCN(c3nc(N)nc4sccc34)CC2)cc1 | 0.072 µM |
| Nc1nc(N2CCN(CCOc3ccccc3)CC2)c2ccsc2n1 | 9.64 µM |

Continued, values first:

| IC50 | SMILES |
| --- | --- |
| 6.99 µM | Nc1nc(N2CCN(C(=O)CCc3ccccc3)CC2)c2cc(-c3ccc(F)cc3)sc2n1 |
| 0.066 µM | Nc1nc(N2CCN(C(=O)COc3ccc(F)cc3)CC2)c2ccsc2n1 |
| 6.7 µM | Nc1nc(N2CCN(C(=O)Nc3ccc(Cl)cc3)CC2)c2ccsc2n1 |
| 8.2 µM | CC(C)N(C(=O)N1CCN(c2nc(N)nc3sc(-c4ccc(F)cc4)cc23)CC1)C(C)C |
| > 10 µM | Nc1nc(N2CCN(C(=O)c3cccnc3)CC2)c2cc(-c3ccc(F)cc3)sc2n1 |
| 0.054 µM | C/C=C/C[C@@H](C)[C@@H](O)[C@H]1C(=O)N[C@@H](CC)C(=O)N(C)CC(=O)N(C)[C@@H](CC(C)C)C(=O)N[C@@H](C(C)C)C(=O)N(C)[C@@H](CC(C)C)C(=O)N[C@@H](C)C(=O)N[C@H](C)C(=O)N(C)[C@@H](CC(C)C)C(=O)N(C)[C@@H](CC(C)C)C(=O)N(C)[C@@H](C(C)C)C(=O)N1C [CYCLOSPORINE] |
